Measured values taken from PubChem BioAssay (NCI).
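Growth conditions: 96-well plates. Treatment: test compound, 48 hours, 5 concentrations. Analysis: linear interpolation between bracketing concentrations; unreached endpoints set to highest concentration. TGI denotes the concentration required for complete inhibition of growth.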

Key:
Assay in all cases: NCI anticancer screen, dose series, 48 h
786-0 renal = test system: 786-0 renal
A498 renal = test system: A498 renal
A549 NSCLC = test system: A549 NSCLC
ACHN renal = test system: ACHN renal
BT-549 breast = test system: BT-549 breast
CAKI-1 renal = test system: CAKI-1 renal
CCRF-CEM leukemia = test system: CCRF-CEM leukemia
COLO 205 colon = test system: COLO 205 colon
DU-145 prostate = test system: DU-145 prostate
EKVX NSCLC = test system: EKVX NSCLC
HCC-2998 colon = test system: HCC-2998 colon
HCT-116 colon = test system: HCT-116 colon
HCT-15 colon = test system: HCT-15 colon
HOP-62 NSCLC = test system: HOP-62 NSCLC
HS 578T breast = test system: HS 578T breast
HT29 colon = test system: HT29 colon
IGROV1 ovarian = test system: IGROV1 ovarian
K-562 leukemia = test system: K-562 leukemia
KM12 colon = test system: KM12 colon
LOX IMVI melanoma = test system: LOX IMVI melanoma
M14 melanoma = test system: M14 melanoma
MALME-3M melanoma = test system: MALME-3M melanoma
MCF7 breast = test system: MCF7 breast
MDA-MB-231 breast = test system: MDA-MB-231 breast
MDA-MB-435 = test system: MDA-MB-435
MDA-N = test system: MDA-N
MOLT-4 leukemia = test system: MOLT-4 leukemia
NCI-H226 lung = test system: NCI-H226 lung
NCI-H23 lung = test system: NCI-H23 lung
NCI-H460 lung = test system: NCI-H460 lung
NCI-H522 lung = test system: NCI-H522 lung
NCI/ADR-RES ovarian = test system: NCI/ADR-RES ovarian
OVCAR-3 ovarian = test system: OVCAR-3 ovarian
OVCAR-8 ovarian = test system: OVCAR-8 ovarian
PC-3 prostate = test system: PC-3 prostate
RPMI-8226 leukemia = test system: RPMI-8226 leukemia
RXF 393 renal = test system: RXF 393 renal
SF-268 CNS = test system: SF-268 CNS
SF-295 CNS = test system: SF-295 CNS
SF-539 CNS = test system: SF-539 CNS
SK-MEL-2 melanoma = test system: SK-MEL-2 melanoma
SK-MEL-28 melanoma = test system: SK-MEL-28 melanoma
SK-MEL-5 melanoma = test system: SK-MEL-5 melanoma
SK-OV-3 ovarian = test system: SK-OV-3 ovarian
SN12C renal = test system: SN12C renal
SNB-19 CNS = test system: SNB-19 CNS
SNB-75 CNS = test system: SNB-75 CNS
SR leukemia = test system: SR leukemia
SW-620 colon = test system: SW-620 colon
TK-10 renal = test system: TK-10 renal
U251 CNS = test system: U251 CNS
UACC-257 melanoma = test system: UACC-257 melanoma
UACC-62 melanoma = test system: UACC-62 melanoma
UO-31 renal = test system: UO-31 renal
HOP-92 NSCLC = test system: HOP-92 NSCLC
OVCAR-4 ovarian = test system: OVCAR-4 ovarian
OVCAR-5 ovarian = test system: OVCAR-5 ovarian

CCOC(=O)CC1c2ccc(O)cc2OC(=O)C1c1ccc(N)cc1 (stereo not given)
TGI (786-0 renal): > 100 µM
TGI (A498 renal): > 100 µM
TGI (A549 NSCLC): > 100 µM
TGI (ACHN renal): > 100 µM
TGI (BT-549 breast): > 100 µM
TGI (CAKI-1 renal): > 100 µM
TGI (CCRF-CEM leukemia): > 100 µM
TGI (COLO 205 colon): > 100 µM
TGI (DU-145 prostate): > 100 µM
TGI (EKVX NSCLC): > 100 µM
TGI (HCC-2998 colon): > 100 µM
TGI (HCT-116 colon): > 100 µM
TGI (HCT-15 colon): > 100 µM
TGI (HOP-62 NSCLC): > 100 µM
TGI (HS 578T breast): > 100 µM
TGI (HT29 colon): > 100 µM
TGI (IGROV1 ovarian): > 100 µM
TGI (K-562 leukemia): > 100 µM
TGI (KM12 colon): > 100 µM
TGI (LOX IMVI melanoma): > 100 µM
TGI (M14 melanoma): > 100 µM
TGI (MALME-3M melanoma): > 100 µM
TGI (MCF7 breast): > 100 µM
TGI (MDA-MB-231 breast): > 100 µM
TGI (MDA-MB-435): > 100 µM
TGI (MDA-N): > 100 µM
TGI (MOLT-4 leukemia): > 100 µM
TGI (NCI-H226 lung): > 100 µM
TGI (NCI-H23 lung): > 100 µM
TGI (NCI-H460 lung): > 100 µM
TGI (NCI-H522 lung): > 100 µM
TGI (NCI/ADR-RES ovarian): > 100 µM
TGI (OVCAR-3 ovarian): > 100 µM
TGI (OVCAR-8 ovarian): > 100 µM
TGI (PC-3 prostate): > 100 µM
TGI (RPMI-8226 leukemia): > 100 µM
TGI (RXF 393 renal): > 100 µM
TGI (SF-268 CNS): > 100 µM
TGI (SF-295 CNS): > 100 µM
TGI (SF-539 CNS): > 100 µM
TGI (SK-MEL-2 melanoma): > 100 µM
TGI (SK-MEL-28 melanoma): > 100 µM
TGI (SK-MEL-5 melanoma): > 100 µM
TGI (SK-OV-3 ovarian): > 100 µM
TGI (SN12C renal): > 100 µM
TGI (SNB-19 CNS): > 100 µM
TGI (SNB-75 CNS): > 100 µM
TGI (SR leukemia): > 100 µM
TGI (SW-620 colon): > 100 µM
TGI (TK-10 renal): > 100 µM
TGI (U251 CNS): > 100 µM
TGI (UACC-257 melanoma): > 100 µM
TGI (UACC-62 melanoma): > 100 µM
TGI (UO-31 renal): > 100 µM

O=C1C=CC2(C=C1)CCC(=O)O2
TGI (786-0 renal): 31 µM
TGI (A498 renal): > 100 µM
TGI (A549 NSCLC): 44.1 µM
TGI (ACHN renal): 34.2 µM
TGI (BT-549 breast): 46.3 µM
TGI (CAKI-1 renal): 18.2 µM
TGI (CCRF-CEM leukemia): 25.3 µM
TGI (COLO 205 colon): 23.1 µM
TGI (DU-145 prostate): 31.5 µM
TGI (EKVX NSCLC): 43.8 µM
TGI (HCC-2998 colon): 27.2 µM
TGI (HCT-116 colon): 28 µM
TGI (HCT-15 colon): 54.3 µM
TGI (HOP-62 NSCLC): 38.2 µM
TGI (HOP-92 NSCLC): 26.6 µM
TGI (HS 578T breast): > 100 µM
TGI (HT29 colon): > 100 µM
TGI (IGROV1 ovarian): 28.5 µM
TGI (K-562 leukemia): > 100 µM
TGI (KM12 colon): 29.9 µM
TGI (LOX IMVI melanoma): 20.9 µM
TGI (M14 melanoma): > 100 µM
TGI (MALME-3M melanoma): 19.6 µM
TGI (MCF7 breast): 34.5 µM
TGI (MDA-MB-231 breast): 23.9 µM
TGI (MDA-MB-435): 29.6 µM
TGI (MDA-N): > 100 µM
TGI (MOLT-4 leukemia): > 100 µM
TGI (NCI-H226 lung): > 100 µM
TGI (NCI-H23 lung): 43.9 µM
TGI (NCI-H460 lung): 30.7 µM
TGI (NCI-H522 lung): 5.4 µM
TGI (NCI/ADR-RES ovarian): > 100 µM
TGI (OVCAR-3 ovarian): 28.9 µM
TGI (OVCAR-4 ovarian): 29.9 µM
TGI (OVCAR-5 ovarian): 46 µM
TGI (OVCAR-8 ovarian): > 100 µM
TGI (PC-3 prostate): 27.1 µM
TGI (RPMI-8226 leukemia): 23.7 µM
TGI (RXF 393 renal): 28.3 µM
TGI (SF-268 CNS): 51.6 µM
TGI (SF-295 CNS): 46.4 µM
TGI (SF-539 CNS): 76.8 µM
TGI (SK-MEL-2 melanoma): 36.6 µM
TGI (SK-MEL-28 melanoma): > 100 µM
TGI (SK-MEL-5 melanoma): 29.8 µM
TGI (SN12C renal): 34.5 µM
TGI (SNB-19 CNS): 37.4 µM
TGI (SNB-75 CNS): 39.1 µM
TGI (SR leukemia): > 100 µM
TGI (SW-620 colon): 37.5 µM
TGI (TK-10 renal): 24.2 µM
TGI (U251 CNS): 23.1 µM
TGI (UACC-257 melanoma): 80.2 µM
TGI (UACC-62 melanoma): 37.4 µM
TGI (UO-31 renal): 31.2 µM
